# Test results reported in patent US20090258069A1, “Delivery of LFA-1 antagonists to the gastrointestinal system” (priority 2008, published 2009).
# “And” between values parts separate entries of the source, which are not always exact repeats. Identical values can stand only once.
# Tests used:
# rabbits = assay: Single dose ocular tolerance in rabbits; format: in vivo, rabbit; conditions: (10%)
# [1] = Single dose ocular and IV ADME with [^14C]-Compound 12 in dogs; format: in vivo, dog
# Source text: Following an ocular dose, the highest average [^14C]-Compound 12 levels were detected in anterior ocular tissues (see FIG. 16). […] No differences in results from male and female dogs were observed.
# in vivo [2] = conditions: rabbit, topical or ocular
# [3] = Acute toxicity, single dose IV in rats; conditions: rat, in vivo
# Method: 4. Acute Toxicity Studies: For single dose IV in rats, the no observable adverse effect level (NOAEL) was 10 mg/kg IV. For escalating single dose IV and 7-day repeated dose with TK (toxicokinetics) in dogs, the NOAEL was 10 mg/kg IV. For single dose ocular tolerance in rabbits, the NOAEL was 3.5 mg/eye/3× per day (10%).
# [4] = 13-week IV toxicity study in rats with 4-week recovery (with plasma exposure); conditions: rat; for AUC: AUC0-n
# in vivo [5] = conditions: rat, iv
# dogs = assay: 13-week ocular toxicity study in dogs with 4-week recovery (with TK); conditions: (3%)
# [6] = Phase 1 clinical trial, tear PK; format: in vivo, human
# Source text: A 48-hour post-dose sample was obtained following Day 1, 14, and 27.
# in vivo [7] = conditions: dog, iv
# [8] = system: SEB stimulated IL-2 release in whole human blood; assay: cells; format: cell-based; conditions: read-out: IC50 inhibition of SEB stimulated IL-2 release in whole human blood
# [9] = in vivo
# in vivo [10] = conditions: topical or ocular
# [11] = Tear PK after a single topical ocular instillation in rabbits
# rats = assay: Respiratory function in rats, single IV bolus, head-out plethysmograph; format: in vivo, rat; conditions: any dose
# [12] = system: Keratoconjunctivitis Sicca (KCS); assay: Canine keratoconjunctivitis sicca (KCS) study, Schirmer tear test and conjunctival biopsy; format: in vivo, dog; conditions: for Schirmer Tear Test Results (OD), Mean: Dog #1 not included; for Schirmer Tear Test Results (OS), Mean: Dog #7 not included; for Schirmer Tear Test Results (OS), individual dogs: left eye; for Schirmer Tear Test Results (OD), individual dogs: right eye
# Source text: If dogs had been treated with topical CsA or tacrolimus in the previous six months, they were not enrolled. […] Animals were subjected to an ocular examination once during the initial visit and during five visits over sixteen weeks of the study (Weeks, 2, 4, 8, 12 and 16). The last OE was approximately four weeks after the last dose of Compound 12 and after one month of CsA treatment. The adnexa and anterior portions of both eyes were examined using an indirect opthalmoscope. The eyes were dilated with a mydriatic when applicable, to allow evaluation of the lens and fundus, including the retina. An evaluation using a modified McDonald-Shaddock scoring system was performed in conjunction with the slitlamp ocular examinations at each interval. […] One strip of STT paper was used for each eye for each interval. […] The length, in mm, of wetting below the notch of the paper was recorded. Conjunctival biopsies were taken at the initial (pretreatment) visit and the Week 12 visit. The second biopsy was taken more lateral (approx. 1 mm) to the initial biopsy. Following appropriate preparation a small conjunctival biopsy was taken from the ventral fornix of each eye.
# [13] = system: attachment of Jurkat cells to ICAM-1; assay: T-cell adhesion assay using Jurkat cells; format: cell-based, human
# Method: A reported LFA-1 antagonist was used as the positive control.
# Jurkat cells were labeled with an 8 μM solution of BCECF-AM (2′,7′-bis-(2-carboxyethyl)-5-(and -6)-carboxyfluorescein) in growth media at room temperature for 15 minutes. […] Non-adherent cells were removed by washing and centrifugation at 100 g for 1 minute. Adherent cells were determined as adherent fluorescent units on a fluorescent plate reader.
# Pilot rat dermal study = format: in vivo; conditions: 1% lotion, ointment, gel, DMSO; TID 7 days, 10 mg/cm^2 on about 6 cm^2
# Method: The safety and tolerability of prototypical dermal formulations (1% lotion, ointment, and gel) were assessed on rats given TID for seven consecutive days—approximately 6 cm^2 with 10 mg/cm^2.
# [14] = Plasma PK after a single topical ocular instillation (dogs and rabbits)
# [15] = 3 mg/kg, 3 mg/kg daily IV bolus, Day 1
# [16] = 3 mg/kg, 3 mg/kg daily IV bolus, Week 13
# [17] = 10 mg/kg, 10 mg/kg daily IV bolus, Day 1
# [18] = 10 mg/kg, 10 mg/kg daily IV bolus, Week 13
# [19] = 30 mg/kg, 30 mg/kg daily IV bolus, Day 1
# [20] = 30 mg/kg, 30 mg/kg daily IV bolus, Week 13
# [21] = rabbit, in vivo, topical or ocular, 1.05 mg
# [22] = single instillation of 0.1, 1.0 or 3.0% dose strength
# [23] = Week 1, 1% solution (Formulation 15) 0.35 mg/eye TID, one grid row per dog
# [24] = Week 16, Compound 12 stopped at week 12, then 4 weeks CsA 0.2% ointment TID
# [25] = Weeks 1-12 of Compound 12 administration
# [26] = in vivo, topical or ocular, 1.05 mg
compound,measurement,setting,value
CS(=O)(=O)c1cccc(C[C@H](NC(=O)c2c(Cl)cc3c(c2Cl)CCN(C(=O)c2ccc4ccoc4c2)C3)C(=O)O)c1 [Compound 12],NOAEL,rabbits,3.5 mg/eye/3× per day
same,levels in conjunctiva/cornea,"[1]; dog, for 16 hrs",greater than 1 micromolar
same,"metabolites in pooled plasma, urine and fecal homogenate","[1]; up to 168 hrs post-dose, 3 mg/eye or 3 mg/dog",no metabolites detected
same,AUC,in vivo [2]; 0.105 mg,18900 ng·h/mL
same,Cmax,in vivo [2]; 0.105 mg,34000 ng/mL
same,AUC,in vivo [2]; 0.35 mg,18900 ng·h/mL
same,Cmax,in vivo [2]; 0.35 mg,21500 ng/mL
same,NOAEL,[3],10 mg/kg
same,AUC,[4]; [15],148 ng·h/mL
same,AUC,[4]; [16],241 ng·h/mL
same,Cmax,[4]; [15],305 ng/mL
same,Cmax,[4]; [16],378 ng/mL
same,AUC,[4]; [17],536 ng·h/mL
same,AUC,[4]; [18],907 ng·h/mL
same,Cmax,[4]; [17],1050 ng/mL
same,Cmax,[4]; [18],1690 ng/mL
same,AUC,[4]; [19],2350 ng·h/mL
same,AUC,[4]; [20],7470 ng·h/mL
same,Cmax,[4]; [19],5120 ng/mL
same,Cmax,[4]; [20],16900 ng/mL
same,NOAEL at 13 week,in vivo [5],30 mg/kg
same,NOAEL,dogs,1.05 mg/eye/3× per day
same,accumulation in tear with multiple ocular dose administration,[6]; BID and TID,no obvious evidence of accumulation
same,tear AUC and Cmax values,"[6]; dosing day 1, maintained throughout the trial",Dose related increases
same,NOAEL at 4 week,in vivo [7],10 mg/kg
same,IC50,[8],69 nM
same,ocular dose absorbed into the systemic circulation,[9],6.9-32%
same,AUC,in vivo [10]; 0.105 mg,5.19 ± 5.39 ng·h/mL
same,Cmax,in vivo [10]; 0.105 mg,11.7 ± 8.8 ng/mL
same,AUC,in vivo [10]; 0.35 mg,7.35 ± 1.52 ng·h/mL
same,Cmax,in vivo [10]; 0.35 mg,13.1 ± 2.12 ng/mL
same,AUC,[11]; [21],183000 ng·h/mL
same,Cmax,[11]; [21],314000 ng/mL
same,time of return of tear concentration to baseline,[11]; [22],≤ 4 h
same,time to maximal mean tear concentration,[11]; [22],≤ 30 min
same,"respiratory function (tidal volume, respiration rate, minute volume)",rats,No adverse changes
same,"Schirmer Tear Test Results (OD), Mean",[12]; Week 1,5.5 mm
same,"Schirmer Tear Test Results (OS), Mean",[12]; Week 1,4.2 mm
same,"Schirmer Tear Test Results (OS), individual dogs",[12]; [23],9 mm (2×) and 18 mm and 0 mm (3×) and 7 mm
same,"Schirmer Tear Test Results (OD), individual dogs",[12]; [23],8 mm (2×) and 6 mm (2×) and 15 mm and 0 mm and 5 mm
same,"Schirmer Tear Test Results (OD), Mean",[12]; Week 2,7.8 mm
same,"Schirmer Tear Test Results (OS), Mean",[12]; Week 2,4.8 mm
same,"Schirmer Tear Test Results (OS), individual dogs","[12]; Week 2, 1% solution TID",4 mm and 0 mm (2×) and 14 mm and 3 mm and 8 mm
same,"Schirmer Tear Test Results (OD), individual dogs","[12]; Week 2, 1% solution TID",10 mm and 2 mm (2×) and 18 mm and 11 mm (3×)
same,"Schirmer Tear Test Results (OD), Mean",[12]; Week 4,7.0 mm
same,"Schirmer Tear Test Results (OS), Mean",[12]; Week 4,6.7 mm
same,"Schirmer Tear Test Results (OS), individual dogs","[12]; Week 4, 1% solution TID",14 mm (2×) and 0 mm (2×) and 7 mm and 5 mm
same,"Schirmer Tear Test Results (OD), individual dogs","[12]; Week 4, 1% solution TID",15 mm and 2 mm and 12 mm and 0 mm and 5 mm and 10 mm (2×)
same,"Schirmer Tear Test Results (OD), Mean",[12]; Week 8,8.5 mm
same,"Schirmer Tear Test Results (OS), Mean",[12]; Week 8,6.5 mm
same,"Schirmer Tear Test Results (OS), individual dogs","[12]; Week 8, 1% solution TID",8 mm (2×) and 19 mm and 0 mm and 2 mm and 17 mm and 6 mm
same,"Schirmer Tear Test Results (OD), individual dogs","[12]; Week 8, 1% solution TID",17 mm and 1 mm and 16 mm and 8 mm and 7 mm (2×) and 11 mm
same,"Schirmer Tear Test Results (OD), Mean",[12]; Week 12,8.8 mm
same,"Schirmer Tear Test Results (OS), Mean",[12]; Week 12,8.7 mm
same,"Schirmer Tear Test Results (OS), individual dogs","[12]; Week 12, 1% solution TID",8 mm (2×) and 18 mm and 3 mm and 7 mm and 15 mm and 4 mm
same,"Schirmer Tear Test Results (OD), individual dogs","[12]; Week 12, 1% solution TID",16 mm and 0 mm and 13 mm (2×) and 8 mm and 7 mm and 9 mm
same,"Schirmer Tear Test Results (OS), Mean",[12]; Week 16 (after 4 weeks CsA),11.0 mm
same,"Schirmer Tear Test Results (OS), individual dogs",[12]; [24],17 mm and 18 mm and 3 mm and 5 mm and 16 mm and 7 mm and 19 mm
same,"Schirmer Tear Test Results (OD), individual dogs",[12]; [24],18 mm and 12 mm (2×) and 8 mm (3×) and 22** mm
same,"Maximum-Minimum Analysis, maximal change in STT, OD, per dog",[12]; [25],3 mm and 8 mm (3×) and −4 mm and 5 mm
same,"Maximum-Minimum Analysis, maximal change in STT, OS, per dog",[12]; [25],7 mm (2×) and 11 mm and 3 mm and 10 mm and 6 mm
same,Histopathological evaluation of conjunctival biopsies before and after treatment,[12]; pretreatment vs Week 12,attenuation of lymphocyte accumulation
same,Schirmer test scores over pretreatment,[12]; week 12,Significant improvement
same,Jurkat cell attachment to ICAM-1,"[13]; 30 min preincubation, 1 h at 37° C.",inhibition of Jurkat cell attachment with increasing dose
same,"dose response curve and IC50, Jurkat cell attachment",[13]; vs positive control,comparable to that of the known direct competitive LFA-1 antagonist
same,serum level after dermal dosing,Pilot rat dermal study,detectable in serum
same,AUC,[14]; [26],22.9 ± 10.1 ng·h/mL
same,Cmax,[14]; [26],38.9 ± 19.7 ng/mL
same,time of decline of plasma concentration to baseline levels,[14]; topical ocular instillation,about 4 hours
same,time of maximum plasma concentration post-dose,[14]; topical ocular instillation,about 0.25 hrs
